IC50 data for 23 compounds are collected here from patent publication US10722501B2 (BAYER AKTIENGESELLSCHAFT, priority 2016, dated 2020).

The structures appear in SMILES notation.

The test addresses T1, recombinant full-length human prolyl endopeptidase (PREP) (Homo sapiens, UniProt P48147).
T1 construct: To recombinant full-length human prolyl endopeptidase (PREP, R&D-Systems, 4308-SE); purchased R&D-Systems 4308-SE
T1 sequence (P48147 1-710): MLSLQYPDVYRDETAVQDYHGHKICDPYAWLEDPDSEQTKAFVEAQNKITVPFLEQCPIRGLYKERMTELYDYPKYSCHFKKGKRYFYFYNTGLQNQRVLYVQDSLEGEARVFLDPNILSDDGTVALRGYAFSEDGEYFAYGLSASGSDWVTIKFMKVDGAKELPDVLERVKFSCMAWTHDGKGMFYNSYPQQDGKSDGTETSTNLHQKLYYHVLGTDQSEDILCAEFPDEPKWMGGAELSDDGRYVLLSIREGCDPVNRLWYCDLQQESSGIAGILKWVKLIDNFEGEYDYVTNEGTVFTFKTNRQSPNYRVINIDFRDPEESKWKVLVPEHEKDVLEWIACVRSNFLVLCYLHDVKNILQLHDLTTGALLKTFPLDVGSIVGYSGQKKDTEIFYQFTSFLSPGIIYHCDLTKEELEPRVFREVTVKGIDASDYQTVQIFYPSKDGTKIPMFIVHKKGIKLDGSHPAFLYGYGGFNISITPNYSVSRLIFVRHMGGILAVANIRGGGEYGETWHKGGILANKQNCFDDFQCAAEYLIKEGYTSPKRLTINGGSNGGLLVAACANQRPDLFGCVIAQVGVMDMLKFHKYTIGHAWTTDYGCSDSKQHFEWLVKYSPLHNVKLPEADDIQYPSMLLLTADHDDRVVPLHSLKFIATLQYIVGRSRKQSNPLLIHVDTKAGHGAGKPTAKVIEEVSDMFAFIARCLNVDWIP
Put plainly: Biochemical human prolyl endopeptidase (PREP) assay with fluorescently labelled substrate. The settings on record: substrate Z-Gly-Pro-AMC 50 μM, 32° C., 60 min; some as mean values from multiple independent determinations. A digest of the protocol:
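Initial rates of fluorescence increase from 50 μM Z-Gly-Pro-AMC cleavage (ex 360/em 465 nm, 60 min, 32° C) give percent PREP activity versus no-compound control, and IC50 is interpolated. Enzyme used at 0.4 nM (final, example) in Tris pH 7.5 with EDTA, GSH, BSA and Brij-35; compounds span 1 nM to 30 μM.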
Usually IC50 stands for the midpoint of a concentration-inhibition curve. As to `O=C([C@@H]1CCCc2nn(Cc3nccc(C(F)(F)F)c3Cl)c(=O)n21)N1CC[C@H](O)C1` [Example 391, (5S)-2-{[3-Chloro-4-(trifluoromethyl)pyridin-2-yl]methyl}-5-{[(3S)-3-hydroxypyrrolidin-1-yl]carbonyl}-5,6,7,8-tetrahydro[1,2,4]triazolo[4,3-a]pyridin-3(2H)-one], the IC50 came to 8.65 nM.

In the case of `CC1Cc2nn(Cc3ccnc(C(F)(F)F)c3F)c(=O)n2C(C(=O)N2CCC(F)(F)C2)C1` (racemic) [Example 334, (5RS,7RS)-5-[(3,3-Difluoropyrrolidin-1-yl)carbonyl]-2-{[3-fluoro-2-(trifluoromethyl)pyridin-4-yl]methyl}-7-methyl-5,6,7,8-tetrahydro[1,2,4]triazolo[4,3-a]pyridin-3(2H)-one], the IC50 came out at 2.95 nM.

As for `O=C([C@@H]1CCCc2nn(Cc3nccc(C(F)(F)F)c3Cl)c(=O)n21)N1CCCC1` [Example 533, (5S)-2-{[3-Chloro-4-(trifluoromethyl)pyridin-2-yl]methyl}-5-(pyrrolidin-1-ylcarbonyl)-5,6,7,8-tetrahydro[1,2,4]triazolo[4,3-a]pyridin-3(2H)-one], the IC50 was 0.44 nM.

Consider `Cc1cc(Cn2nc3n(c2=O)C(C(=O)N2CCCC2)CCC3)no1` (racemic) [Example 61, (5RS)-2-[(5-Methyl-1,2-oxazol-3-yl)methyl]-5-(pyrrolidin-1-ylcarbonyl)-5,6,7,8-tetrahydro[1,2,4]triazolo[4,3-a]pyridin-3(2H)-one], for which the IC50 stood at 16 nM.

On to `CC1Cc2nn(Cc3ccc(F)c(Cl)c3)c(=O)n2C(C(=O)N2C[C@@H](F)[C@@H](F)C2)C1` (mixture of isomers) [Example 339, (5RS,7RS)-2-(3-Chloro-4-fluorobenzyl)-5-{[(3R,4S)-3,4-difluoropyrrolidin-1-yl]carbonyl}-7-methyl-5,6,7,8-tetrahydro[1,2,4]triazolo[4,3-a]pyridin-3(2H)-one], for which the IC50 amounted to 0.49 nM.

For the compound `Cc1ccc(Cn2nc3n(c2=O)[C@H](C(=O)N2CCC(O)(C(F)(F)F)C2)CCC3)cc1` (mixture of isomers) [Example 152, (5S)-5-{[(3RS)-3-Hydroxy-3-(trifluoromethyl)pyrrolidin-1-yl]carbonyl}-2-(4-methylbenzyl)-5,6,7,8-tetrahydro[1,2,4]triazolo[4,3-a]pyridin-3(2H)-one], the IC50 amounted to 38 nM.

Regarding `COc1ncc(Cn2nc3n(c2=O)[C@H](C(=O)N2C[C@@H](F)[C@@H](F)C2)CCC3)cc1Cl` [Example 442, (5S)-2-[(5-Chloro-6-methoxypyridin-3-yl)methyl]-5-{[(3R,4S)-3,4-difluoropyrrolidin-1-yl]carbonyl}-5,6,7,8-tetrahydro[1,2,4]triazolo[4,3-a]pyridin-3(2H)-one], the IC50 worked out at 1 nM.

As to `O=C([C@@H]1CCCc2nn(Cc3ccc(F)c(Cl)c3)c(=O)n21)N1CC[C@H](O)C1` [Example 97, (5S)-2-(3-Chloro-4-fluorobenzyl)-5-{[(3S)-3-hydroxypyrrolidin-1-yl]carbonyl}-5,6,7,8-tetrahydro[1,2,4]triazolo[4,3-a]pyridin-3(2H)-one], the IC50 amounted to 6.5 nM.

Take `O=C(C1CCCc2nn(Cc3ccccn3)c(=O)n21)N1CCCC1` (racemic) [Example 22, (5RS)-2-(Pyridin-2-ylmethyl)-5-(pyrrolidin-1-ylcarbonyl)-5,6,7,8-tetrahydro[1,2,4]triazolo[4,3-a]pyridin-3(2H)-one]: the IC50 is 42 nM.

With `CC1Cc2nn(Cc3ccc(C(F)(F)F)nc3)c(=O)n2C(C(=O)N2C[C@@H](F)[C@@H](F)C2)C1` (mixture of isomers) [Example 336, (5RS,7RS)-5-{[(3R,4S)-3,4-Difluoropyrrolidin-1-yl]carbonyl}-7-methyl-2-{[6-(trifluoromethyl)pyridin-3-yl]methyl}-5,6,7,8-tetrahydro[1,2,4]triazolo[4,3-a]pyridin-3(2H)-one], the IC50 is 0.66 nM.

Turning to `O=C(C1C(C(F)(F)F)CCc2nn(Cc3ncc(Cl)cc3Cl)c(=O)n21)N1CC(F)C1` (single isomer, unassigned) [Example 307, (5RS,6RS)-2-[(3,5-Dichloropyridin-2-yl)methyl]-5-[(3-fluoroazetidin-1-yl)carbonyl]-6-(trifluoromethyl)-5,6,7,8-tetrahydro[1,2,4]triazolo[4,3-a]pyridin-3(2H)-one], the half-inhibitory concentration (IC50) is 98.5 nM.

`O=C([C@@H]1CCCc2nn(Cc3ccc(F)c(F)c3)c(=O)n21)N1C[C@@H](F)[C@@H](F)C1` [Example 467, (5S)-2-(3,4-Difluorobenzyl)-5-{[(3R,4S)-3,4-difluoropyrrolidin-1-yl]carbonyl}-5,6,7,8-tetrahydro[1,2,4]triazolo[4,3-a]pyridin-3(2H)-one]: the IC50 was 0.49 nM.

In the case of `O=C(C1CCCc2nn(Cc3ccc4c(c3)CCCC4)c(=O)n21)N1CCCC1` (racemic) [Example 88, (5RS)-5-(Pyrrolidin-1-ylcarbonyl)-2-(5,6,7,8-tetrahydronaphthalen-2-ylmethyl)-5,6,7,8-tetrahydro[1,2,4]triazolo[4,3-a]pyridin-3(2H)-one], the IC50 worked out at 0.27 nM.

Consider `CC1CCC(C(=O)N2CC[C@H](F)C2)n2c1nn(Cc1ccc(F)cc1F)c2=O` (mixture of isomers) [Example 326, (5RS,8RS)-2-(2,4-Difluorobenzyl)-5-{[(3S)-3-fluoropyrrolidin-1-yl]carbonyl}-8-methyl-5,6,7,8-tetrahydro[1,2,4]triazolo[4,3-a]pyridin-3(2H)-one], for which the IC50 turned out to be 1.5 nM.

With `O=C(C1CCC(C(F)(F)F)c2nn(Cc3ncccc3F)c(=O)n21)N1C[C@@H](F)[C@@H](F)C1` (mixture of isomers) [Example 274, (5RS,8RS)-5-{[(3R,4S)-3,4-Difluoropyrrolidin-1-yl]carbonyl}-2-[(3-fluoropyridin-2-yl)methyl]-8-(trifluoromethyl)-5,6,7,8-tetrahydro[1,2,4]triazolo[4,3-a]pyridin-3(2H)-one], the concentration for half-maximal inhibition (IC50) stood at 5.9 nM.

As to `O=C(C1CCCc2nn(Cc3ccc(Cl)s3)c(=O)n21)N1CCCC1` (racemic) [Example 53, (5RS)-2-[(5-Chloro-2-thienyl)methyl]-5-(pyrrolidin-1-ylcarbonyl)-5,6,7,8-tetrahydro[1,2,4]triazolo[4,3-a]pyridin-3(2H)-one], the IC50 came to 0.71 nM.

In the case of `O=C(C1CCCc2nn(Cc3cc(Cl)cc(Cl)c3)c(=O)n21)N1CCCC1` (racemic) [Example 81, (5RS)-2-(3,5-Dichlorobenzyl)-5-(pyrrolidin-1-ylcarbonyl)-5,6,7,8-tetrahydro[1,2,4]triazolo[4,3-a]pyridin-3(2H)-one], the IC50 was found to be 0.84 nM.

Take `O=C([C@@H]1CCCc2nn(Cc3cc4cccnc4nc3C(F)(F)F)c(=O)n21)N1CC(F)C1` [Example 420, (5S)-5-[(3-Fluoroazetidin-1-yl)carbonyl]-2-{[2-(trifluoromethyl)-1,8-naphthyridin-3-yl]methyl}-5,6,7,8-tetrahydro[1,2,4]triazolo[4,3-a]pyridin-3(2H)-one]: the IC50 was 1.7 nM.

On to `O=C([C@@H]1CCCc2nn(Cc3ccc(Cl)cn3)c(=O)n21)N1CCSC1` [Example 505, (5S)-2-[(5-Chloropyridin-2-yl)methyl]-5-(1,3-thiazolidin-3-ylcarbonyl)-5,6,7,8-tetrahydro[1,2,4]triazolo[4,3-a]pyridin-3(2H)-one], for which the IC50 turned out to be 1.4 nM.

Regarding `CC1CCC(C(=O)N2C[C@@H](F)[C@@H](F)C2)n2c1nn(Cc1ccc(F)cc1F)c2=O` (mixture of isomers) [Example 324, (5RS,8RS)-2-(2,4-Difluorobenzyl)-5-{[(3R,4S)-3,4-difluoropyrrolidin-1-yl]carbonyl}-8-methyl-5,6,7,8-tetrahydro[1,2,4]triazolo[4,3-a]pyridin-3(2H)-one], the IC50 turned out to be 1.2 nM.

For the compound `CCn1nc(C(F)(F)F)cc1Cn1nc2n(c1=O)[C@H](C(=O)N1C[C@@H](F)[C@@H](F)C1)CCC2` [Example 361, (5S)-5-{[(3R,4S)-3,4-Difluoropyrrolidin-1-yl]carbonyl}-2-{[1-ethyl-3-(trifluoromethyl)-1H-pyrazol-5-yl]methyl}-5,6,7,8-tetrahydro[1,2,4]triazolo[4,3-a]pyridin-3(2H)-one], the half-inhibitory concentration (IC50) came to 1.2 nM.

On to `CC(c1ccc(Cl)cc1)n1nc2n(c1=O)C(C(=O)N1CCCC1)CCC2` (single isomer, unassigned) [Example 4, (5RS)-2-[(1 RS)-1-(4-Chlorophenyl)ethyl]-5-(pyrrolidin-1-ylcarbonyl)-5,6,7,8-tetrahydro[1,2,4]triazolo[4,3-a]pyridin-3(2H)-one], for which the concentration for half-maximal inhibition (IC50) turned out to be 2.2 nM.

Regarding `O=C([C@@H]1CCCc2nn(Cc3ccc(F)cc3F)c(=O)n21)N1C[C@@H](F)[C@@H](F)C1` [Example 489, (5S)-2-(2,4-Difluorobenzyl)-5-{[(3R,4S)-3,4-difluoropyrrolidin-1-yl]carbonyl}-5,6,7,8-tetrahydro[1,2,4]triazolo[4,3-a]pyridin-3(2H)-one], the IC50 was 0.11 nM.
